Results on four compounds are retold here after patent US20240197927A1, “COMBINATION COMPRISING A NEUROTENSIN RECEPTOR BINDING COMPOUND, GEMCITABINE AND NAB-PACLITAXEL” (Fusion Pharmaceuticals Inc., priority 2021, published 2024).

Data set [1] deals with metastatic PDAC. To be noted: patients with metastatic PDAC; p<0.001; cited from earlier work.
In data set [2] the test system is metastatic PDAC. Conditions: patients with metastatic PDAC, first-line; p<0.001; cited from earlier work.
Data set [3] addresses neurotensin receptor 2 (NTR2) (Homo sapiens, UniProt O95665). To be noted: unlike NTR1; cited from earlier work.
The test system of data set [4] is subcutaneous AsPC1 tumors. The data set can be described thus: Efficacy study on mice bearing subcutaneous AsPC-1 tumors (tumor volume). The data set is classed as in vivo. The procedure: The AsPC 1 cell line was isolated from a metastatic site (ascites) from a patient (Chen W H. et al., In Vitro. 1982 Jan; 18(1):24-34).
(§1) Tumor cells were grown as monolayer at 37° C. in a humidified atmosphere (5% CO2, 95% air). The culture medium was RPMI 1640 containing 2 mM L-glutamine supplemented with 10% fetal bovine serum. For experimental use, tumor cells were detached from the culture flask using accutase and neutralized by the addition of complete culture medium. The cells were counted, and viability exceeded 85% as assessed by 0.25% trypan blue exclusion assay. Two frozen pellets of HT29 tumor cells were prepared: one frozen cell pellet prepared during the in-vitro cell culture, and one frozen cell pellet prepared using the cell suspension used for tumor induction in mice
Healthy female Swiss Nude mice (Crl:NU(Ico)-Foxn1^nu), 6 weeks old at reception, were obtained from Charles River.
Tumors were induced by subcutaneous injection of 1×10^7 AsPC 1 cells in 200 μL of RPMI 1640 medium containing matrigel (50:50, v:v, ref: 356237, BD Biosciences, France) into the right flank (in the axis of the heart) of 150 animals. AsPC 1 tumor cell implantation was performed 72 hours after whole-body irradiation with a gamma source (2 Gy (Nude mice), 60Co, BioMep, France).
Animals were randomized by individual tumor volume when tumors reach a mean volume of 150-200 mm3. […]

Data set [5] concerns subcutaneous HT-29 tumors. Briefly: Efficacy study on mice bearing subcutaneous HT-29 tumors (tumor volume). The data set is classed as in vivo. The procedure:
The HT-29 cell line was established from the primary tumor of a patient with colon adenocarcinoma (Fogh J et al., J. Natl. Cancer Inst. 1977 Jul. 59(1): 221-26).
as §1, with “mice.” for “mice”
Healthy female Swiss Nude mice (Crl:NU(Ico)-Foxn1nu), 7 weeks old at reception, were obtained from Charles River.
Tumors were induced by subcutaneous injection of 1×10^7 HT29 cells in 200 μL of RPMI 1640 medium containing matrigel (50:50, v:v, ref: 356237, BD Biosciences, France) into the right flank (in the axis of the heart) of 160 animals. HT29 tumor cell implantation was performed 24 hours after a whole-body irradiation with a gamma source (2 Gy (Nude mice), 60Co, BioMep, France). The day of tumor induction was considered as the day −11 (D-11). […]

Data set [6] in a line: Toxicity: weight loss of treated mice. It is filed as in vivo. Conditions: AsPC-1 study mice; combination Groups 2E, 5E, 6E; Gemcitabine/Abraxane Group 3E; ^177Lu-IPN01087 Groups 4E, 7E. The procedure: ^177Lu-IPN01087 and the reference substances were administered by intravenous injection (IV) into the caudal vein via a catheter. The recommended pH formulation for IV administration is pH 4.5-8.0. […]

Where [7] appears, read: in combination with gemcitabine and nab-paclitaxel chemotherapy regimen.

neurotensin receptor 2 (NTR2), sequence (O95665 whole entry, species assumed): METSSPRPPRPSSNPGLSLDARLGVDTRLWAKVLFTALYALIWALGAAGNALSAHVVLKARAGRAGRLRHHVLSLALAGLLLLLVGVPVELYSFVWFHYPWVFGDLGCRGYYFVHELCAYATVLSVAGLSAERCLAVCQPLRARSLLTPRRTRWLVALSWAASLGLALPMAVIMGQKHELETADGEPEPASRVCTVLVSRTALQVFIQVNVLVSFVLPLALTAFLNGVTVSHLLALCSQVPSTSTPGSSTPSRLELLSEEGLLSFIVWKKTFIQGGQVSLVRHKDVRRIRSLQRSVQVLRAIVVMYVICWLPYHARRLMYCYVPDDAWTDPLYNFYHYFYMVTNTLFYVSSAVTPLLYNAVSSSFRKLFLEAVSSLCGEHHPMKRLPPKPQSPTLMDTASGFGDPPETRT

As for FOLFIRINOX, in the data set with metastatic PDAC [1], the ORR is on record as 31.6%, the “median OS” value is listed as 11.1 months and the “median PFS” value is on record as 6.4 months.
As to `Nc1ccn([C@@H]2O[C@H](CO)[C@@H](O)C2(F)F)c(=O)n1` [gemcitabine], in the data set with metastatic PDAC [1], the ORR is 9.4%, the “median OS” value was 6.8 months and the “median PFS” value was 3.3 months. Moreover, in the data set on metastatic PDAC [2], the “overall response rate (ORR)” value is on record as 7%, the “overall survival (OS)” value was 6.7 months and the “progression-free survival (PFS)” value is listed as 3.7 months.
With `C[C@@H]1CN([C@H]2CC[C@](C#N)(c3ccc(F)cc3)CC2)CC[C@]1(C(=O)O)c1ccccc1` [levocabastine], in data set [3], the “affinity for NTR2” value was “high affinity”.
As to “^177Lu-zalsenertant tetraxetan [^177Lu-IPN01087]”, the “overall effect in the AsPC-1 pancreatic cancer model compared to chemotherapy or radiotherapy regimens alone” value in data set [4] (setting [7]) was “prolonged regression”. Besides, the “AsPC-1 tumor growth, effect compared to the vehicles” value in data set [4] (treatment alone, FIG. 7: Group 3E (GEM-ABX), Group 4E (^177Lu-IPN01087 @19MBq), IV) was “antitumor effect”. The “overall effect in the HT-29 colon cancer model compared to chemotherapy or radiotherapy regimens alone” value in data set [5] (setting [7]) is on record as “improved tumor growth control”. The “HT-29 tumor growth, effect as compared to the vehicles” value in data set [5] (single treatments, FIG. 2: Group 3 (GEM-ABX), Group 4 (^177Lu-IPN01087 @17MBq), IV) is listed as “inhibitory effect on tumor growth”. Further, the mean weight losses in data set [6] is on record as −4% to −10%.
